Data published in ChEMBL document CHEMBL1126676, “On the prediction of binding properties of drug molecules by comparative molecular field analysis” (1993).

system: not listed separately; experiment: Negative logarithm of minimal inhibitory concentration against human rhinovirus 14; format: functional

SMILES | -ln (MIC)
Cc1cc(CCCCCOc2ccc(C3=N[C@@H](C)CO3)cc2)on1 | 14.3
Cc1cc(CCCCCCCOc2ccc(C3=N[C@@H](C)CO3)cc2Cl)on1 | 15.4
Cc1cc(CCCCCCCOc2ccc(C3=NCCO3)cc2)on1 [DISOXARIL] | 14.3
Cc1cc(CCCCCCCOc2ccc(C3=N[C@@H](C)CO3)cc2)on1 | 17.3
CC[C@H]1COC(c2ccc(OCCCCCCCc3cc(C)no3)cc2)=N1 | 17.7

The next lines start with the values.

-ln (MIC) | SMILES
12.9 | Cc1cc(CCCCCOc2ccc(C3=NCCO3)cc2Cl)on1
14.5 | Cc1cc(CCCCCOc2ccc(C3=NCCO3)cc2)on1
14.7 | Cc1cc(CCCCCCCOc2ccc(C3=N[C@H](C)CO3)cc2)on1

target: T1, Thermolysin (Bacillus thermoproteolyticus) (UniProt P00800); experiment: Binding constant against thermolysin expressed as negative logarithm
T1 sequence (whole entry): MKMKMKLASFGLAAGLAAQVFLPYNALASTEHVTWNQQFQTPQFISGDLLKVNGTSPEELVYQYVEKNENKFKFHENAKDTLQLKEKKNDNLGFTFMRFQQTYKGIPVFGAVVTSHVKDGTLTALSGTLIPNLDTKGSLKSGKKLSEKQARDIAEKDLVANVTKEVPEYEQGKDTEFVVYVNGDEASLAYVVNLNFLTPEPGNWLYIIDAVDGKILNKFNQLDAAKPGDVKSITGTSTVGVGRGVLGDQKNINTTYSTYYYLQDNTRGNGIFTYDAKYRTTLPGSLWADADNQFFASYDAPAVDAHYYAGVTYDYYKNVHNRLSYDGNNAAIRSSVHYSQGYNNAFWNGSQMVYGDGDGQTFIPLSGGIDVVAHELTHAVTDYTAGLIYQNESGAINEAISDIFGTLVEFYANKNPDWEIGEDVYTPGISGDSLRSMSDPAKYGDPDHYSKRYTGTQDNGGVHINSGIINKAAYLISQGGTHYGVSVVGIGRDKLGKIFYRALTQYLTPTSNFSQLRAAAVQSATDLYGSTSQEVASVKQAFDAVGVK

SMILES | -ln K
CC(C)CC(OP(=O)(O)CNC(=O)OCc1ccccc1)C(=O)NC(C)C(=O)O (stereo unspecified) | 11.2
CC(C)CC(NC(=O)C(CC(C)C)OP(=O)(O)CNC(=O)OCc1ccccc1)C(=O)O (stereo unspecified) | 11.6
CC(C)CC(N)C(=O)NO (stereo unspecified) | 8.57
CC(C)CC(CP(=O)(O)CNC(=O)OCc1ccccc1)C(=O)NCC(=O)O (stereo unspecified) | 15

Further lines, results first:

-ln K | SMILES
8.38 | CC(C)CC(OP(=O)(O)CNC(=O)OCc1ccccc1)C(=O)NCC(=O)O (stereo unspecified)
9.85 | CC(C)CC(OP(=O)(O)CNC(=O)OCc1ccccc1)C(=O)NC(Cc1ccccc1)C(=O)O (stereo unspecified)
17.8 | CC(C)CC(CP(=O)(O)CNC(=O)OCc1ccccc1)C(=O)NC(C)C(=O)O (stereo unspecified)
14.7 | CC(NC(=O)C(Cc1ccccc1)C(=O)NO)C(=O)NCCO (stereo unspecified)
